The record followed here is patent US12121514B2, “Nonselective metabotropic glutamate receptor activators for treatment of attention deficit disorder and 22Q syndrome” (THE CHILDREN'S HOSPITAL OF PHILADELPHIA, priority 2015, dated 2024).

Structures are written as SMILES.

This experiment has as its system subject with ADHD, ODD and conduct disorder (CD). Description: Vanderbilt CD score (items 27-40), Phase Ib trial of NFC-1. Type of experiment: in vivo, human. Conditions: Subject 130. The source says:
The Vanderbilt Rating Scale is a measure that can be completed by parents or teachers (separate forms, see Vanderbilt Rating Scale Parents and Vanderbilt Rating Scale Teachers). The Vanderbilt scale rates the child's behavior on items such as attention, finishing tasks, hyperactivity, difficulty waiting, and measures of conduct or oppositional […] disorders-as well as measures of overall school performance and interactions with others. The first 18 items on the Vanderbilt scale correspond to those of the ADHD Rating Scale IV above while the Vanderbilt scale also includes items 19-47 related to other mental disorders including ODD (items 19-26), conduct disorder (items 27-40), anxiety (items 41, 42, and 47), and depression (items 43-46). Each of the behavioral assessment items on the Vanderbilt Scale are rated 0, 1, 2, or 3, with 0=never occurring; 1=occasionally, 2=often, and 3=very often. Thus, the ADHD Rating Scale IV, ADHD Rating Scale V, and items 1-18 of the Vanderbilt Rating Scale are equivalent scales, while additional items on the Vanderbilt Scale assess co-morbid phenotypes and disorders. One subject screening positive for ODD (no. 130) also screened positive for conduct disorder (CD), based on scores of 2 or 3 for 3 out of the […] behaviors assessed by items 27-40 of the Vanderbilt Scale at enrollment and again at week 1. […]

Take `O=C1CC[C@H](C(=O)N2CCCCC2)N1` [NFC-1, fasoracetam monohydrate]: the “improvement in Vanderbilt CD score” value (week 1 to week 5) amounted to 4 points. The “Vanderbilt CD score” value (week 5, out of 16, 16/16 at week 1) worked out at 12.
